Series [1] deals with KMS-12-BM. Description: mouse xenograft model KMS-12-BM. It is filed as in vivo. Particulars: single agent Compound B.
In series [2] the test system is MV-4-11. Description: Cell Titer Glo viability, dose matrix, Chalice analysis. It is filed as cell-based. On the procedure: (§1) Compound stock was freshly prepared in the appropriate culture medium and manually added to the plates by electronic multichannel pipette in three replicates. […] The viability of cells was assessed after 72 hours of treatment by quantification of cellular ATP levels via Cell Titer Glo (Promega #G7571) according to the manufacturer's protocol. Plates were read on a luminescence plate reader (Victor X4, Perkin Elmer).
(§2) Each compound is diluted threefold times and the dashes below represent the threefold dilution between each number.
Background: Cellular ATP, detected with luciferase, serves as a proxy for viable cell number.

The subject of series [3] is MOLM-13. The series is described as above. It is filed as cell-based. Here is the method:
as §1, §2

Regarding `C[C@@H]1C[C@H](N)C[C@H](c2ccncc2NC(=O)c2ccc(F)c(-c3c(F)cccc3F)n2)C1` [Compound A, N-(4-((1R,3S,5S)-3-amino-5-methylcyclohexyl)pyridin-3-yl)-6-(2,6-difluorophenyl)-5-fluoropicolinamide], for the setting “Day 14 (steady state), 200 mg to 350 mg dose”, the “PK exposure at steady state” value is recorded as “plateau”. Further, the “PK exposure (Cmax AUC) dose proportionality” value (dose range of 70 mg-250 mg, Day 1) was “over proportional”. For the same compound, the “increase of exposure at 500 mg compared to 200 mg to 350 mg dose” value (steady state) is on record as “about 2 fold”.
Turning to `Cc1nc(NC(=O)N2CCC[C@H]2C(N)=O)sc1-c1ccnc(C(C)(C)C(F)(F)F)c1` [Compound B, (S)-pyrrolidine-1,2-dicarboxylic acid 2-amide 1-({4-methyl-5-[2-(2,2,2-trifluoro-1,1-dimethyl-ethyl)-pyridin-4-yl]-thiazol-2-yl}-amide)], the anti-tumor activity entry in series [1] was “did not demonstrate in anti-tumor activity”.
For `CO[C@@H]1[C@H](N(C)C(=O)c2ccccc2)C[C@H]2O[C@]1(C)n1c3ccccc3c3c4c(c5c6ccccc6n2c5c31)C(=O)NC4` [PKC412, midostaurin], the single agent activity entry in series [2] and in series [3] was “active” each time.

Source of the values: US20160175293A1, “PIM KINASE INHIBITOR COMBINATIONS” (priority 2013, published 2016).
